Data on one compound can be found in US20100273769A1, “COMPOSITION AND METHOD FOR THE TREATMENT OF PARKINSON'S DISEASE” (priority 2009, published 2010).

Each structure is given as a SMILES string.

The experiment concerns the target T1, G2019S mutant LRRK2 (Homo sapiens, UniProt Q5S007, G2019S).
T1 construct: of the mutant aa1326-2527 kinase fragment are used in the assays; GST; made in house
T1 sequence (Q5S007 1326-2527 G2019S): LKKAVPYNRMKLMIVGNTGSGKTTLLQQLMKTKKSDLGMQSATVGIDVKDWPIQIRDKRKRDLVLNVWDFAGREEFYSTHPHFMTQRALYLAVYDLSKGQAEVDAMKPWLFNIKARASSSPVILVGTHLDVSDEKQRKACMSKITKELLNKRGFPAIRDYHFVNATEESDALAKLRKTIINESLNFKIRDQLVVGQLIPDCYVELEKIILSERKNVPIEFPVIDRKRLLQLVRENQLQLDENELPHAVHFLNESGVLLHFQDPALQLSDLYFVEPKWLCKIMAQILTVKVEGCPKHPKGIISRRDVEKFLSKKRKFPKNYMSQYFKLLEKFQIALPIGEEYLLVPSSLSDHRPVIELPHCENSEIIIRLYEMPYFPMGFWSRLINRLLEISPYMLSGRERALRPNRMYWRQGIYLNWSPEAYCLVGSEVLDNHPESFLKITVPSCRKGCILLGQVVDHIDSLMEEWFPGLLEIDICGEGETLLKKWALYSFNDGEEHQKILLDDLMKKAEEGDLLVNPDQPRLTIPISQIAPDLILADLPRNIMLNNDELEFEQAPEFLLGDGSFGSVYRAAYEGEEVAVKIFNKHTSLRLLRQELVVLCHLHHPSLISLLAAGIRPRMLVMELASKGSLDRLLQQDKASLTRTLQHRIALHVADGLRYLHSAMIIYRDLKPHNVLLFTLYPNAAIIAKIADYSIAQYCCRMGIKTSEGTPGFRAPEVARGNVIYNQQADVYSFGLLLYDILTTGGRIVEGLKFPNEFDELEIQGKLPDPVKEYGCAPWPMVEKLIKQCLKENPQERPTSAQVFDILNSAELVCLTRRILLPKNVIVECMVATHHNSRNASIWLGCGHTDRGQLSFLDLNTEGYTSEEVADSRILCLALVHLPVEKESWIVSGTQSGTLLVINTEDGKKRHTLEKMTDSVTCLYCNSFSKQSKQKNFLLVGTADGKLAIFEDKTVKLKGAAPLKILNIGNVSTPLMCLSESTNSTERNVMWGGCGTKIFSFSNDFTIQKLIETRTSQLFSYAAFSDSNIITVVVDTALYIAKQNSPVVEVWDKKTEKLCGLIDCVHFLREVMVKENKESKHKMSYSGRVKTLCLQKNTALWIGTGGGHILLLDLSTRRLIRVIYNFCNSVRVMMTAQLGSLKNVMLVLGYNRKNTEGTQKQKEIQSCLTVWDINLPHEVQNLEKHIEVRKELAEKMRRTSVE
In words: Adapta assay, inhibition of G2019S mutant LRRK2 kinase fragment. In kind it is biochemical. Particulars: 100 μM ATP, FIG. 3B. The protocol: Duplicate assay mixtures are set up each in a 10 μL volume containing 17 ng (8 nM) of human LRRK2 protein fragment encompassing amino acids 1326 to 2527, obtained as a recombinant GST fusion protein [according to Jaleel et al., Biochem. J. 405, 307-317 (2007)], 200 μM LRRKtide ([…]peptide), 25 mM Tris, pH 8.2, 5 mM MgCl2, 0.5 mM EGTA, 100 μM ATP, 0.005% Brij-35, 1% DMSO, and compound 3 in a series of concentrations (OnM, 0.1 nM, 0.3 nM, 1 nM, 3 nM, 10 nM, 30 nM, 100 nM, 300 nM, 1000 nM). After incubation for 1 hr at ambient temperature, 5 μL of the Adapta® Assay Detection Mix (Invitrogen) is added, containing 30 mM EDTA to stop the kinase reaction, 30 nM of the Eu-labelled anti-ADP antibody, and the AlexaFluor°-ADP conjugate. […]
The assays conducted in a 384 well microplate are then read out in a fluorescence microplate reader to establish the ratio of emissions at 665 nm (ADP-tracer) and at 615 nm (Eu-antibody) as a measure of ADP concentration by virtue of Fluorescence Resonance Energy Transfer (FRET). The conversion in % of ATP into ADP by the kinase reaction in each well is determined from the ADP/ATP standard curve, and means are formed from each duplicate assay well. […]
Inhibition is determined in the same way as in example 2, except that due to the higher specific activity […] of the mutant aa1326-2527 kinase fragment are used in the assays

With `CNC(=O)[C@@]1(N)CC2OC1(C)n1c3ccccc3c3c4c(c5c6ccccc6n2c5c31)C(=O)NC4` (stereo partly shown) [Compound 3], the “IC50 relative to nominal kinase concentration, G2019S LRRK2” value is given as “substantially below the nominal concentration of the kinase itself”.
